Reference: PubChem BioAssay (NCI)
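Compound exposure: 48 hours, 5 concentrations, 96-well plates. The concentration for full growth arrest is given as TGI.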

Experiments:
Assay in all cases: NCI-60 cell line screen, 48 h
[1] = system: 786-0 renal
[2] = system: A498 renal
[3] = system: A549 NSCLC
[4] = system: ACHN renal
[5] = system: BT-549 breast
[6] = system: CAKI-1 renal
[7] = system: CCRF-CEM leukemia
[8] = system: COLO 205 colon
[9] = system: DU-145 prostate
[10] = system: EKVX NSCLC
[11] = system: HCC-2998 colon
[12] = system: HCT-116 colon
[13] = system: HCT-15 colon
[14] = system: HL-60(TB) leukemia
[15] = system: HOP-62 NSCLC
[16] = system: HOP-92 NSCLC
[17] = system: HS 578T breast
[18] = system: HT29 colon
[19] = system: IGROV1 ovarian
[20] = system: K-562 leukemia
[21] = system: KM12 colon
[22] = system: LOX IMVI melanoma
[23] = system: M14 melanoma
[24] = system: MALME-3M melanoma
[25] = system: MCF7 breast
[26] = system: MDA-MB-231 breast
[27] = system: MDA-MB-435
[28] = system: MDA-N
[29] = system: MOLT-4 leukemia
[30] = system: NCI-H226 lung
[31] = system: NCI-H23 lung
[32] = system: NCI-H460 lung
[33] = system: NCI-H522 lung
[34] = system: NCI/ADR-RES ovarian
[35] = system: OVCAR-3 ovarian
[36] = system: OVCAR-4 ovarian
[37] = system: OVCAR-5 ovarian
[38] = system: OVCAR-8 ovarian
[39] = system: PC-3 prostate
[40] = system: RPMI-8226 leukemia
[41] = system: RXF 393 renal
[42] = system: SF-268 CNS
[43] = system: SF-295 CNS
[44] = system: SF-539 CNS
[45] = system: SK-MEL-2 melanoma
[46] = system: SK-MEL-28 melanoma
[47] = system: SK-MEL-5 melanoma
[48] = system: SK-OV-3 ovarian
[49] = system: SN12C renal
[50] = system: SNB-19 CNS
[51] = system: SNB-75 CNS
[52] = system: SR leukemia
[53] = system: SW-620 colon
[54] = system: T-47D breast
[55] = system: TK-10 renal
[56] = system: U251 CNS
[57] = system: UACC-257 melanoma
[58] = system: UACC-62 melanoma
[59] = system: UO-31 renal

`O=C(O)CC1NCc2cc3ccccc3nc21` (centres undefined) showed a TGI [1] of over 100 µM, a TGI [2] of over 100 µM and a TGI [3] of over 100 µM. For the same compound, the TGI [4] was over 100 µM, the TGI [5] was over 100 µM and the TGI [6] was over 100 µM. For the same compound, the TGI [7] was over 100 µM, the TGI [8] was over 100 µM and the TGI [9] was over 100 µM. The TGI [10] was over 100 µM, the TGI [11] was over 100 µM and the TGI [12] was over 100 µM. For the same compound, the TGI [13] was over 100 µM, the TGI [14] was over 100 µM and the TGI [15] was over 100 µM. For the same compound, the TGI [16] was over 100 µM, the TGI [17] was over 100 µM and the TGI [18] was over 100 µM. For the same compound, the TGI [19] was over 100 µM, the TGI [20] was over 100 µM and the TGI [21] was over 100 µM. It also gave a TGI [22] of over 100 µM, a TGI [23] of over 100 µM and a TGI [24] of over 100 µM. The TGI [25] was over 100 µM, the TGI [26] was over 100 µM and the TGI [27] was over 100 µM. For the same compound, the TGI [28] was over 100 µM, the TGI [29] was over 100 µM and the TGI [30] was over 100 µM. For the same compound, the TGI [31] was over 100 µM, the TGI [32] was over 100 µM and the TGI [33] was over 100 µM. For the same compound, the TGI [34] was over 100 µM, the TGI [35] was over 100 µM and the TGI [36] was over 100 µM. For the same compound, the TGI [37] was over 100 µM, the TGI [38] was over 100 µM and the TGI [39] was over 100 µM. It also gave a TGI [40] of over 100 µM, a TGI [41] of over 100 µM and a TGI [42] of over 100 µM. For the same compound, the TGI [43] was over 100 µM, the TGI [44] was over 100 µM and the TGI [45] was over 100 µM. For the same compound, the TGI [46] was over 100 µM, the TGI [47] was over 100 µM and the TGI [48] was over 100 µM. It also gave a TGI [49] of over 100 µM, a TGI [50] of over 100 µM and a TGI [51] of over 100 µM. For the same compound, the TGI [52] was over 100 µM, the TGI [53] was over 100 µM and the TGI [54] was over 100 µM. The TGI [55] was over 100 µM, the TGI [56] was over 100 µM and the TGI [57] was over 100 µM. For the same compound, the TGI [58] was over 100 µM and the TGI [59] was over 100 µM.

For `CCOC(=O)C(Cc1cccn1C(=O)OC(C)(C)C)[N+](=O)[O-]` (centres undefined), the TGI [1] was 51.3 µM, the TGI [2] was 40.6 µM and the TGI [3] was over 100 µM. The TGI [4] was 47.5 µM, the TGI [5] was over 100 µM and the TGI [6] was 64.5 µM. It also gave a TGI [7] of 35.4 µM, a TGI [8] of 41.3 µM and a TGI [9] of 70.2 µM. For the same compound, the TGI [10] was over 100 µM, the TGI [11] was 42.4 µM and the TGI [12] was 51.3 µM. For the same compound, the TGI [13] was 62.3 µM, the TGI [14] was 48.1 µM and the TGI [15] was 56.7 µM. For the same compound, the TGI [16] was 74.2 µM, the TGI [17] was 75.9 µM and the TGI [18] was 50.3 µM. For the same compound, the TGI [19] was 43.3 µM, the TGI [20] was 79.6 µM and the TGI [21] was 55.5 µM. The TGI [22] was 32.1 µM, the TGI [23] was 40.9 µM and the TGI [24] was 75.4 µM. For the same compound, the TGI [25] was over 100 µM, the TGI [26] was 44.7 µM and the TGI [27] was 77.1 µM. For the same compound, the TGI [28] was 90.4 µM, the TGI [29] was 50.4 µM and the TGI [30] was 67.3 µM. It also gave a TGI [31] of over 100 µM, a TGI [32] of 53.4 µM and a TGI [33] of 40.8 µM. For the same compound, the TGI [34] was over 100 µM, the TGI [35] was 98.2 µM and the TGI [36] was 89 µM. It also gave a TGI [37] of 63.2 µM, a TGI [38] of 93 µM and a TGI [39] of 45.3 µM. The TGI [40] was 45.1 µM, the TGI [41] was 34.4 µM and the TGI [42] was over 100 µM. It also gave a TGI [43] of 99.4 µM, a TGI [44] of 58.7 µM and a TGI [45] of 53.9 µM. The TGI [46] was 69 µM, the TGI [47] was 37.9 µM and the TGI [48] was over 100 µM. It also gave a TGI [49] of 62.9 µM, a TGI [50] of 75.5 µM and a TGI [51] of 54.9 µM. The TGI [52] was 45 µM, the TGI [53] was 59.2 µM and the TGI [54] was over 100 µM. It also gave a TGI [55] of 50.3 µM, a TGI [56] of 50.9 µM and a TGI [57] of 59.3 µM. For the same compound, the TGI [58] was 42.9 µM and the TGI [59] was 39.3 µM.

In the case of `CCCCON1C[C@H](OC(C)=O)C(OC(C)=O)[C@H](OC(C)=O)C1` (some centres undefined), the TGI [1] is reported as over 100 µM, the TGI [2] is reported as over 100 µM and the TGI [3] is reported as over 100 µM. The TGI [4] was over 100 µM, the TGI [5] was over 100 µM and the TGI [6] was over 100 µM. For the same compound, the TGI [7] was over 100 µM, the TGI [8] was over 100 µM and the TGI [9] was over 100 µM. The TGI [10] was over 100 µM, the TGI [11] was over 100 µM and the TGI [12] was over 100 µM. For the same compound, the TGI [13] was over 100 µM, the TGI [14] was over 100 µM and the TGI [15] was over 100 µM. It also gave a TGI [16] of over 100 µM, a TGI [17] of over 100 µM and a TGI [18] of over 100 µM. It also gave a TGI [19] of over 100 µM, a TGI [20] of over 100 µM and a TGI [21] of over 100 µM. For the same compound, the TGI [22] was over 100 µM, the TGI [23] was over 100 µM and the TGI [24] was over 100 µM. For the same compound, the TGI [25] was over 100 µM, the TGI [26] was over 100 µM and the TGI [27] was over 100 µM. The TGI [28] was over 100 µM, the TGI [29] was over 100 µM and the TGI [30] was over 100 µM. The TGI [31] was over 100 µM, the TGI [32] was over 100 µM and the TGI [33] was over 100 µM. For the same compound, the TGI [34] was over 100 µM, the TGI [35] was over 100 µM and the TGI [36] was over 100 µM. The TGI [38] was over 100 µM, the TGI [39] was over 100 µM and the TGI [40] was over 100 µM. For the same compound, the TGI [41] was over 100 µM, the TGI [42] was over 100 µM and the TGI [43] was over 100 µM. The TGI [44] was over 100 µM, the TGI [45] was over 100 µM and the TGI [46] was over 100 µM. The TGI [47] was over 100 µM, the TGI [48] was over 100 µM and the TGI [49] was over 100 µM. It also gave a TGI [50] of over 100 µM, a TGI [51] of over 100 µM and a TGI [52] of over 100 µM. It also gave a TGI [54] of over 100 µM, a TGI [55] of over 100 µM and a TGI [56] of over 100 µM. The TGI [57] was over 100 µM, the TGI [58] was over 100 µM and the TGI [59] was over 100 µM.

Work on `Cc1ccc(NC(=O)CSc2nc(=O)[nH]c3nc[nH]c23)cc1` yielded a TGI [1] of over 100 µM, a TGI [2] of 89.9 µM and a TGI [3] of over 100 µM. It also gave a TGI [4] of over 100 µM, a TGI [5] of over 100 µM and a TGI [6] of over 100 µM. The TGI [7] was over 100 µM, the TGI [8] was over 100 µM and the TGI [9] was over 100 µM. For the same compound, the TGI [10] was over 100 µM, the TGI [11] was over 100 µM and the TGI [12] was over 100 µM. It also gave a TGI [13] of over 100 µM, a TGI [14] of over 100 µM and a TGI [15] of over 100 µM. It also gave a TGI [16] of over 100 µM, a TGI [17] of over 100 µM and a TGI [18] of over 100 µM. The TGI [19] was over 100 µM, the TGI [20] was over 100 µM and the TGI [21] was over 100 µM. It also gave a TGI [22] of over 100 µM, a TGI [23] of over 100 µM and a TGI [24] of over 100 µM. It also gave a TGI [25] of over 100 µM, a TGI [26] of over 100 µM and a TGI [27] of over 100 µM. For the same compound, the TGI [28] was over 100 µM, the TGI [29] was over 100 µM and the TGI [30] was over 100 µM. It also gave a TGI [31] of over 100 µM, a TGI [32] of over 100 µM and a TGI [33] of over 100 µM. For the same compound, the TGI [34] was over 100 µM, the TGI [35] was over 100 µM and the TGI [36] was over 100 µM. For the same compound, the TGI [37] was over 100 µM, the TGI [38] was over 100 µM and the TGI [39] was over 100 µM. It also gave a TGI [40] of over 100 µM, a TGI [41] of over 100 µM and a TGI [42] of over 100 µM. It also gave a TGI [43] of over 100 µM, a TGI [44] of 52.8 µM and a TGI [45] of over 100 µM. It also gave a TGI [46] of over 100 µM, a TGI [47] of over 100 µM and a TGI [48] of over 100 µM. The TGI [49] was over 100 µM, the TGI [50] was over 100 µM and the TGI [51] was over 100 µM. The TGI [52] was over 100 µM, the TGI [53] was over 100 µM and the TGI [54] was over 100 µM. The TGI [55] was over 100 µM, the TGI [56] was over 100 µM and the TGI [57] was over 100 µM. It also gave a TGI [58] of over 100 µM and a TGI [59] of over 100 µM.
